Results reported in patent US20090326014A1, “Use of 5-ht7 receptor agonists for the treatment of pain” (Laboratorios Del Dr. Esteve, S.A., priority 2006, published 2009).
Values joined by “and” are separate entries in the source; they are usually repeats but may differ in a detail not shown here. Equal values may be shown once. “Also recorded” adds a separate entry of the source. Read-outs that look alike come from different tables or passages of the source.

Columns and labels:
h5-HT7 = h5-HT7 (Homo sapiens, UniProt P34969); experiment: biochemical; settings: Affinity [ki (nM)]
h5-HT2C = h5-HT2C (Homo sapiens, UniProt P28335); experiment: Radioligand binding assay, h5-HT2C
h5-HT2B = h5-HT2B (Homo sapiens, UniProt P41595); experiment: Radioligand binding assay, h5-HT2B
h5-HT1A = target: T1, h5-HT1A (Homo sapiens, UniProt P08908); experiment: Radioligand binding assay, h5-HT1A
T1 sequence (P08908 1-422): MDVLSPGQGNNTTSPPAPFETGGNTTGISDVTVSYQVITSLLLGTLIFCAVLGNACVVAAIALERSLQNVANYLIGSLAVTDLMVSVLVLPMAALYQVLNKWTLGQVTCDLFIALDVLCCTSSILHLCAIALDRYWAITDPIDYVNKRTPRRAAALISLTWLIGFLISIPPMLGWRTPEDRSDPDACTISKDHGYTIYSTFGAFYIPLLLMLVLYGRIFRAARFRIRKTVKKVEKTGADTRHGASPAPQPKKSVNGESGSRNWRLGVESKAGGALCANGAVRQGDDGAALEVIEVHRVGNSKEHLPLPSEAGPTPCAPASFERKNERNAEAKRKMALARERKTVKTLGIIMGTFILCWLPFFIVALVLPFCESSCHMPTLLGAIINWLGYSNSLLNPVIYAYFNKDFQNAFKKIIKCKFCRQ

[1] = tested on: capsaicin-induced mechanical allodynia; experiment: Capsaicin test, antiallodynic protocol (1 μg capsaicin, 1 g von Frey filament); settings: for dose at which the antiallodynic effect reached the maximum: s.c.
Procedure: Animals were housed in groups of five, provided with food and water ad libitum and kept in controlled laboratory conditions with the temperature maintained at 21±1° C. and light in 12 h cycles (on at 07:00 h and off at 19:00 h). Experiments were carried out in a soundproof and air-regulated experimental room. The number of mice per group in each individual experiment was 16.
Capsaicin (8-methyl-N-vanillyl 6-nonamide) was dissolved in 1% DMSO (vehicle). […] Doses were calculated based on the molecular weight of the free base. All the compounds and vehicles (1% DMSO or physiological saline) were administered in a volume of 5 ml/kg through the subcutaneous (s.c.) route. When two compounds were co-administered, they were injected s.c. in opposite flanks of the mice.
Subplantar capsaicin injection initially evokes a nocifensive behavior that is characterized by lifting and guarding the injected paw and typically lasts up to 5 min following injection. […] In this study, sensitization by subplantar capsaicin injection was used to assess the effect of several 5-HT7 ligands on mechanical allodynia.
Drug treatments with 5-HT7 ligands were done 30 min before capsaicin injection and withdrawal latencies to a mechanical stimulus were determined 15 min after capsaicin injection (FIG. 1).
Mechanical allodynia was quantified by measuring the hind paw withdrawal response latency to von Frey filament stimulation. Mice were placed into compartment enclosures in a test chamber with a framed metal mesh floor and allowed to acclimate to their environment for 120 min before testing. […] The mechanical stimulus was applied to the plantar surface of the right, capsaicin-injected hind paw from below the mesh floor by using an automated testing device (dynamic plantar aesthesiometer; Ugo Basile, Italy) that lifts a straight filament (0.5 mm diameter). The filament exerted a fixed upward pressure (1 g or 0.25 g) on the plantar surface. When the animal withdrew its hind paw, the mechanical stimulus automatically stopped and the latency time was recorded. Latency was defined as the time from the onset of exposure to the filament to the cessation of the pressure when the sensor detected the withdrawal of the paw. A cut-off latency of 60 sec was imposed. Paw withdrawal latencies were measured in triplicate for each animal.
This approach enabled us to evaluate the possible antiallodynic effect of 5-HT7 ligands.
Data are presented as mean paw withdrawal latency responses in sec±S.E.M. Capsaicin-injected hind paw withdrawal responses to mechanical stimulation of treated mice were compared with those of untreated (vehicle-treated) mice. Statistical analysis to test intergroup comparisons was made using an initial one-way analysis of variance followed by the Newman-Keuls multiple comparison test. The level of significance was set at p<0.05.

5-HT7 receptors [2] = target: T2, 5-HT7 receptors (Homo sapiens, UniProt P34969); experiment: cAMP measurement (HTRF) in HEK-293F cells stably expressing human 5-HT7 receptors; type: cell-based; design: expressed in transfected cells; host or cells: HEK-293F; settings: for EC50: HEK-293F cells, human 5-HT7, mean ± SEM
Procedure: The HTRF CAMP kit from CisBio was used according to the manufacturer's directions. The experimental procedure was performed as stated below. After overnight serum-free incubation, suspended cells (20,000 cells per well) were added to 96-well culture plates in incubation buffer composed of Ham's F12 (Gibco) plus 1 mM 3-isobutyl-1-methyl-xanthine (IBMX; Sigma) and 20 μM pargyline (Sigma).
For agonist and antagonist experiments, 2 μl of either compound or vehicle was added to each well on 40 μl of cell suspension at different concentrations, preincubating plates for 10 min at room temperature after compound addition.

h5-HT5A = h5-HT5A (Homo sapiens, UniProt P47898); experiment: Radioligand binding assay, h5-HT5A; settings: read-out: Affinity [ki (nM)]
h5-HT3 = target: T3, h5-HT3 (Homo sapiens, UniProt P46098); experiment: Radioligand binding assay, h5-HT3; settings: read-out: Affinity [ki (nM)]
T3 sequence (P46098 24-478): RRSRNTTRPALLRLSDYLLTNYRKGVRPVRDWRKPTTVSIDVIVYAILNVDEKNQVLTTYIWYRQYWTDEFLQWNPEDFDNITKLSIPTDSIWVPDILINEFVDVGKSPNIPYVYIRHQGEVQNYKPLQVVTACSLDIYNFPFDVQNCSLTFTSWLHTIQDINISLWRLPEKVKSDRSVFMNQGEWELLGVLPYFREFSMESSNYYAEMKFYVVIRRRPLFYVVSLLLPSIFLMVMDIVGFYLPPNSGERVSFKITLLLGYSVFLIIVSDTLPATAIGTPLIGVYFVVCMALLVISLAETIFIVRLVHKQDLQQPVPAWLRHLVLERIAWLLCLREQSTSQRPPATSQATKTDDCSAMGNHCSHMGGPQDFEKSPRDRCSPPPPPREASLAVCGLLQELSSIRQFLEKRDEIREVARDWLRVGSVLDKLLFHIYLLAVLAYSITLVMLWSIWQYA
Procedure: (§1) Binding affinities were determined in radioligand binding assays according to their standard assays protocols. In case 1, the assays included in the LeadProfilingScreen package plus 5-HT1 non-selective, 5-HT2 non-selective, 5-HT2B, 5-HT2C, 5-HT4, 5-HT5A, 5-HT6 and 5-HT7 were performed. In case 2, assays included in the High-throughput profile plus 5-HT1D, 5-HT2B, 5-HT4e were performed. For AS-19 further assays were carried out to complete its selectivity profile for serotonin receptors, including 5-HT1B, 5-HT1D, 5-HT2A and 5-HT4a.

gp5-HT4 = gp5-HT4 (Cavia porcellus, UniProt O70528); experiment: Radioligand binding assay, gp5-HT4; design: species or system guinea pig; settings: read-out: Affinity [ki (nM)]
Procedure: as §1

h5-HT6 = h5-HT6 (Homo sapiens, UniProt P50406); experiment: Radioligand binding assay, h5-HT6
[3] = tested on: sciatic nerve-ligatured rats; experiment: Chronic constriction injury of the sciatic nerve (CCI-SN), Randall-Sellito test
Procedure: (§2) All compounds were prepared as aqueous solutions. […] When two compounds were co-administered, one was injected s.c. and the other i.p.
Briefly, the right common sciatic nerve was exposed at mid-tight level by blunt dissection through the biceps femoris muscle. Proximal to the trifurcation, ≈10 mm of nerve was freed from adhering tissue and four loose ligatures (5.0 chromic catgut) were tied around the sciatic nerve (≈1 mm apart). […] In sham-operated control rats, an identical dissection was performed on the right side allowing the sciatic nerve to be freed from surrounding tissue, but not ligatured. Finally, muscle and skin were closed in layers with silk thread.
Mechanical nociceptive thresholds, expressed as grams (g), were measured using the Randall-Sellito test (Ugo Basile analgesimeter; Bioseb, Chaville, France). An increasing pressure was applied to the nerve-injured hindpaw of unrestrained rats until paw withdrawal (PW) and then a squeak (i.e. the vocalization threshold when the paw was held under pressure) were obtained. As PW is a spinally coordinated reflex whereas vocalization is a supra-spinal integrated response (Kayser and Christensen, 2000), this test allowed assessment of the respective contribution of spinal versus supra-spinal mechanisms.

[4] = tested on: mechanical allodynia induced by partial sciatic nerve ligation; experiment: Partial sciatic nerve ligation, von Frey test (mechanical allodynia); type: in vivo, mice; settings: for effect on mechanical allodynia (von Frey pressure threshold), nerve-injured mice: days 11-13 post-injury
Excerpt: Mechanical allodynia was quantified by measuring the tactile threshold for hind paw withdrawal following von Frey filament stimulation. […] The filament exerted an increasing upward pressure on the plantar surface. The pressure increased linearly with time (0.1 g/s; from 0 to 5 g in 50 s) until the mouse withdrew its paw. […] A cut-off threshold of 5 g (50 s) was imposed.
The filament of 0.4 g was first used. […] This up-down procedure was stopped four measures after the first change in animal responding and the threshold of response was calculated. Clear paw withdrawal, shaking was considered as a nociceptive-like response.

[5] = tested on: infraorbital nerve-ligatured rats; experiment: Chronic constriction injury of the infraorbital nerve (CCI-ION), von Frey filaments
Procedure: Food and water were available ad libitum. Rats were allowed to habituate to the housing facilities for at least 1 week before surgery.
as §2
After pentobarbital-induced anaesthesia, the head of the rat was fixed in a stereotaxic frame, and a mid-line scalp incision was made, exposing skull and nasal bone. The infraorbital part of the right infraorbital nerve was then exposed. The edge of the orbit, formed by the maxillary, frontal, lacrimal and zygomatic bones, was dissected free, and orbital contents were gently deflected to give access to the infraorbital nerve. The latter was then dissected free at its most rostral extent in the orbital cavity, just caudal to the infraorbital foreamen. […] Care was taken to avoid any interruption of the epineurial circulation. In sham-operated rats, the right infraorbital nerve was exposed, but it was not ligatured.
In these rats with unilateral ligatures on the infraorbital nerve, sensitivity to mechanical stimulation in the ipsilateral vibrissal territory was assessed by determination of pressure threshold, delivered through von Frey filaments (Semmes-Weinstein monofilaments, Stoelting, Wood Dale, Ill., USA), necessary to trigger defensive behavioural response (brisk withdrawal of the head; attack; escape reaction).

h5-HT2A = h5-HT2A (Homo sapiens, UniProt P28223); experiment: Radioligand binding assay, h5-HT2A; settings: read-out: Affinity [ki (nM)]
[6] = tested on: thermal hyperalgesia induced by partial sciatic nerve ligation; experiment: Partial sciatic nerve ligation, plantar test (thermal hyperalgesia)
Procedure: Animals were housed in groups of five, provided with food and water ad libitum and kept in controlled laboratory conditions with the temperature maintained at 21±1° C. and light in 12 h cycles (on at 07:00 h and off at 19:00 h). Experiments were carried out in a soundproof and air-regulated experimental room.
The rest of compounds were prepared as aqueous solutions. Doses were calculated based on the molecular weight of the free base. All the compounds and vehicles (1% DMSO or physiological saline) were administered in a volume of 5 ml/kg through the subcutaneous (s.c.) route. When two compounds were co-administered, they were injected s.c. in opposite flanks of the mice.
This model consists of partial injury to the sciatic nerve at mid-thigh level. All surgical procedures for nerve injury were performed under isoflurane (IsoFlo®, Abbott-Laboratorios Dr. Esteve, S. A., Barcelona, Spain) anesthesia (induction: 3%; surgery: 2%). Briefly, mice were anaesthetized and the common sciatic nerve was exposed at the level of the mid-thigh of the right hind paw. Partial nerve injury was produced at about 1 cm proximal to the nerve trifurcation by tying a tight ligature around approximately 33 to 50% the diameter of the sciatic nerve using 9-0 non-absorbable virgin silk suture (Alcon surgical, Texas, USA). Ligature enclosed the outer ⅓-½ sciatic nerve whereas the rest of the nerve (inner ⅔-½) was leaved “uninjured”. The muscle was then stitched with 6-0 silk suture and the skin incision was closed with wound clips. Control, sham-operated mice underwent the same surgical procedure and the sciatic nerve was exposed, but not ligated. After surgery, animals were allowed to recover for 5 days prior to initiation of nociceptive behavioral tests (see experimental protocol below).
The effectiveness of acute treatments with 5-HT7 ligands compared to vehicle on the expression of neuropathic pain was investigated based on the following experimental protocol. […] After the habituation period, pre-injury baseline responses in each test were established during 2 consecutive days. One day after baseline measurements, nerve injury or sham operation was induced as previously described. Mice were then tested in either the von Frey or the plantar test on day 5 after the surgical procedure to monitor post-injury responses. Post-injury baseline responses of mice treated with vehicle were obtained on day 10 (basal pre-treatment). On days 11-13 mice received treatment with three different doses of 5-HT7 ligands following a Latin square design. Finally, on day 14 after surgery, baseline responses in vehicle-treated mice (basal post-treatment) were evaluated as an internal control to ensure that mechanical allodynia and thermal hyperalgesia were not influenced by previous treatments in the Latin square design.

h5-HT1F = target: T4, h5-HT1F (Homo sapiens, UniProt P30939); experiment: Radioligand binding assay, h5-HT1F; settings: read-out: Affinity [ki (nM)]
T4 sequence (P30939 1-366): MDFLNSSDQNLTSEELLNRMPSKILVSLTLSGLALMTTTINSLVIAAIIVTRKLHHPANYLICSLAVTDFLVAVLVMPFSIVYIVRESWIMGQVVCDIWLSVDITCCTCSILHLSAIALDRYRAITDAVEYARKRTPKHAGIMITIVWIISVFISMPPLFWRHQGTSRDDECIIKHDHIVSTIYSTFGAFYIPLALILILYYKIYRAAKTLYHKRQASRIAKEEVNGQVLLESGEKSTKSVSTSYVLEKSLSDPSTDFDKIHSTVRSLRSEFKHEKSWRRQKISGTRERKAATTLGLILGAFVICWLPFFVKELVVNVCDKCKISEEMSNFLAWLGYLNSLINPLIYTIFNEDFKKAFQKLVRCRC

5-HT7 receptors [7] = target: T2, 5-HT7 receptors; settings: Mahe et al., 2004; Romero et al., 2006; cited from earlier work
[8] = tested on: capsaicin-induced mechanical allodynia; experiment: Capsaicin test, proallodynic protocol (4 ng capsaicin, 0.25 g von Frey filament); type: in vivo, mice; settings: 10 mg/Kg s.c., 0.25 g pressure
Procedure: Alternatively, in some experiments, only 4 ng (instead of 1 μg) of capsaicin were injected into the paw and the pressure exerted by the filament was reduced to 0.25 g (instead of 1 g). […] This approach was used to test the possibility that treatments could exert a proallodynic effect. The FIG. 1 summarizes the two different experimental approaches carried out in this study.

5-HT1A = settings: Foster et al., 1995; cited from earlier work

T2 sequence (P34969 whole entry): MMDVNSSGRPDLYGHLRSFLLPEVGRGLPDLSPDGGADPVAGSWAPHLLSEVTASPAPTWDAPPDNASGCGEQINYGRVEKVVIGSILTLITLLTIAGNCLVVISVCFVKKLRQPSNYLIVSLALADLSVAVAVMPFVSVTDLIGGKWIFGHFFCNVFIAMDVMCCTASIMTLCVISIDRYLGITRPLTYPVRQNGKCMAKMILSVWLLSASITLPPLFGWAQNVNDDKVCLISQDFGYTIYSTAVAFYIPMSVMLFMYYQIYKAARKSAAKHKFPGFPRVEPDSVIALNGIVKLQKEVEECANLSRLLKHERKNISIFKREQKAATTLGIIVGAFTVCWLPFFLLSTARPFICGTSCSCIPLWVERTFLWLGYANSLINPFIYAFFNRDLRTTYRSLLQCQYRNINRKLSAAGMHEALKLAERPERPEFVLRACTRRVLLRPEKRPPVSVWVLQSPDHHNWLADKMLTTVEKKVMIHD
h5-HT7, sequence (P34969 whole entry): as above
h5-HT2A, sequence (P28223 whole entry): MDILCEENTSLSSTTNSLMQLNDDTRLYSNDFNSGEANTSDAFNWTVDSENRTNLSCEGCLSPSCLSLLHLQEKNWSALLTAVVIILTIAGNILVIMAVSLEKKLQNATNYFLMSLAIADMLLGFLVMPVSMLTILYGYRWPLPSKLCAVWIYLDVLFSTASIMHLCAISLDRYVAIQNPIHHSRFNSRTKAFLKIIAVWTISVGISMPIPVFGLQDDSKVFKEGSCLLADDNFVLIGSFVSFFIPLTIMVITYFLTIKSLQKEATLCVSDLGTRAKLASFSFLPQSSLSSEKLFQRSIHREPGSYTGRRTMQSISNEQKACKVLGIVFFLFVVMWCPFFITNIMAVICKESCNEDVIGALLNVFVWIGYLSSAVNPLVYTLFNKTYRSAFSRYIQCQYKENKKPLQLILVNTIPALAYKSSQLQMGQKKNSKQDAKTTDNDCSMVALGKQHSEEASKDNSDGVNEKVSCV
h5-HT6, sequence (P50406 whole entry): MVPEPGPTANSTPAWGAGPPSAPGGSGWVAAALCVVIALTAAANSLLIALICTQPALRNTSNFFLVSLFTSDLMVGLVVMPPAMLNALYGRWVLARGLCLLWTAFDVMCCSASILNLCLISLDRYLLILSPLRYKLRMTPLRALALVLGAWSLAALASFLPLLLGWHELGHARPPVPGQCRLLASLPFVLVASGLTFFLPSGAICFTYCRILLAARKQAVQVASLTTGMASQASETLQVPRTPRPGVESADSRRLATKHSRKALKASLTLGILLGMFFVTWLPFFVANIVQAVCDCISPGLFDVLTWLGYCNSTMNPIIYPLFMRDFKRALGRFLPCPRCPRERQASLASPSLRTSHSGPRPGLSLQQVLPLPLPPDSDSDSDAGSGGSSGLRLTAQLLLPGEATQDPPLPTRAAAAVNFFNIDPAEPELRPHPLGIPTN
h5-HT2B, sequence (P41595 whole entry): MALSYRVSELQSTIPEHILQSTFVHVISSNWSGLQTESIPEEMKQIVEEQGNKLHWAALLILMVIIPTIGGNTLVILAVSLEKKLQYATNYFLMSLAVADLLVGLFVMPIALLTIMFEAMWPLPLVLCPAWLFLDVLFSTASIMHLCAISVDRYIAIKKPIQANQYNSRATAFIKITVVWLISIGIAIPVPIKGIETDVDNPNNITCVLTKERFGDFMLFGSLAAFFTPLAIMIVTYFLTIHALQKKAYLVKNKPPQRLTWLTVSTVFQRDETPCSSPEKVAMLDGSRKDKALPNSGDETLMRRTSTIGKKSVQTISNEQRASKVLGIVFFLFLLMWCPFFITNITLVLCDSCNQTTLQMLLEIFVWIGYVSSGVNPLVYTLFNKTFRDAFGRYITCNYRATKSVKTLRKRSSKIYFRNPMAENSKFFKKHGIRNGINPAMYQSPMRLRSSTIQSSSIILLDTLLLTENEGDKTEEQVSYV
h5-HT5A, sequence (P47898 whole entry): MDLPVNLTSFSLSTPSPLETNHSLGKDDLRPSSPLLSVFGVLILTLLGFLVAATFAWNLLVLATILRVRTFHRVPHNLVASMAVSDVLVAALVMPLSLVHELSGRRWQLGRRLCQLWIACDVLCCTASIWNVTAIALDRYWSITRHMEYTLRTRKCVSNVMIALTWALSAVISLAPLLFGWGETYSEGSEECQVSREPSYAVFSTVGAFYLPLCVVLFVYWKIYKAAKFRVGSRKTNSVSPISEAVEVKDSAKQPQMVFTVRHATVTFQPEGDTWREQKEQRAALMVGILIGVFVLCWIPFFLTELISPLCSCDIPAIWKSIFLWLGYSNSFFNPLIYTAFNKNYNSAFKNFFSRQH
gp5-HT4, sequence (O70528 whole entry): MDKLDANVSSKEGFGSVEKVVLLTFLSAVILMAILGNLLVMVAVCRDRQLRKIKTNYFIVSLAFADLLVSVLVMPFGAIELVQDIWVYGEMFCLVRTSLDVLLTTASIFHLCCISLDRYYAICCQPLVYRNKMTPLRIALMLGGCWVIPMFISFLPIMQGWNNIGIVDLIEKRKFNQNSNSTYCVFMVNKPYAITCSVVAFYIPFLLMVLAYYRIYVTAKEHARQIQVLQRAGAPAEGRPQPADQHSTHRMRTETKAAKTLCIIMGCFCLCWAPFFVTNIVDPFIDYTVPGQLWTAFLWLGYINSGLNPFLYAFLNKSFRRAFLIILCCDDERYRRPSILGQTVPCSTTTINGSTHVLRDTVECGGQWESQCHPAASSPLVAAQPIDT
h5-HT2C, sequence (P28335 33-458): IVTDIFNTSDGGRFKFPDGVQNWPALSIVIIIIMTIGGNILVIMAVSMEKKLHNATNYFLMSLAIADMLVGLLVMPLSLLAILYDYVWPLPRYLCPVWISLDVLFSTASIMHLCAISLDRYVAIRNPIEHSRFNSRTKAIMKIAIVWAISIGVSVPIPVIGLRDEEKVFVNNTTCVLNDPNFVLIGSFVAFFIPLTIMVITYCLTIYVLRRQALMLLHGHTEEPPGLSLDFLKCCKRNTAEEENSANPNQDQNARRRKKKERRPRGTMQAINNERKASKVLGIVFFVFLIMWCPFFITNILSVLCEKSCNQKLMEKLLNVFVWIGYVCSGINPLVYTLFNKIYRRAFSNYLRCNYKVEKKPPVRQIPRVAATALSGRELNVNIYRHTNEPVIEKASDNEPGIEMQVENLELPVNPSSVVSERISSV

## Cc1nn(C)c(C)c1-c1cccc2c1CC[C@H](N(C)C)C2 [AS-19]
h5-HT7
  Ki: 0.605 nM and 0.6 nM
h5-HT2C
  Ki: > 1000 nM
h5-HT2B
  Ki: > 1000 nM
h5-HT1A
  Ki: 89.7 nM
[1]; 1 g filament
  dose at which the antiallodynic effect reached the maximum: 10 mg/kg
5-HT7 receptors [2]; EC50 (nM), cAMP concentration-response curves
  EC50: 8.87 ± 0.57 nM
5-HT7 receptors [2]; HEK293F
  Emax: 77 ± 2.3%
5-HT7 receptors [2]; pEC50, cAMP concentration-response curves
  EC50: 8.71 nM
h5-HT5A
  Ki: 98.5 nM
h5-HT3
  Ki: > 1000 nM
gp5-HT4
  Ki: > 1000 nM
h5-HT6
  Ki: > 1000 nM

## Cc1ccc(CNCC2(F)CCN(C(=O)c3ccc(F)c(Cl)c3)CC2)nc1 [F-13640, (3-Chloro-4-fluoro-phenyl)-[4-fluoro-4-{[(5-methyl-pyridin-2-ylmethyl)-amino]-methyl}piperidin-1-yl]methanone]
[1]; 1 mg/kg s.c., 1 g filament
  effect on capsaicin-induced mechanical allodynia: inhibited

## CN(C)CCSc1cccc(-c2ccccc2)n1 [MSD-5a, 2-(6-phenylpyridin-2-ylthio)-N,N-dimethylethanamine]
[3]; s.c., paw withdrawal and vocalization thresholds
  effect on mechanical nociceptive thresholds in sciatic nerve-ligatured rats: clear-cut antihyperalgesic effects
[4]; 0.3 mg/kg s.c.
  effect on mechanical allodynia (von Frey pressure threshold), nerve-injured mice: ineffective
[4]; 1 and 3 mg/kg s.c.
  effect on mechanical allodynia (von Frey pressure threshold), nerve-injured mice: significantly inhibited mechanical allodynia; also recorded: restored thresholds of the nociceptive withdrawal response of nerve-injured paws to baseline pre-injury values
[4]; post-treatment thresholds, day 14 post-injury
  persistence of the antiallodynic effect after treatment: disappeared the following day after last administration of MSD-5a
[4]; sham-operated, s.c., over the doses tested
  effect on nociceptive threshold in sham-operated mice: did not produce any effects
h5-HT1A; h5-HT1A, read-out: Affinity [ki (nM)]
  Ki: 16 nM
[1]; 3, 10 and 30 mg/kg s.c., 1 g filament
  effect on capsaicin-induced mechanical allodynia (paw withdrawal latency vs vehicle): increased the latencies of nociceptive paw withdrawal responses
[1]; mice, 1 g filament, s.c. 30 min before capsaicin, over the doses tested
  effect on capsaicin-induced mechanical allodynia (paw withdrawal latency): restored the nociceptive response of capsaicin-sensitized mice to baseline values
[1]; 1 g filament
  dose at which the antiallodynic effect reached the maximum: 10 mg/kg
[5]; s.c., von Frey filaments, ipsilateral vibrissal territory
  effect on response threshold (mechanical allodynia) in infraorbital nerve-ligatured rats: clearly increased the threshold
h5-HT2A
  Ki: 320 nM
[6]; 0.3 mg/kg s.c.
  effect on thermal hyperalgesia (paw withdrawal latency), nerve-injured mice: did not exert analgesic (antihyperalgesic) effect
[6]; 1 and 3 mg/kg s.c., days 11-13 post-injury
  effect on thermal hyperalgesia (paw withdrawal latency), nerve-injured mice: increased the withdrawal latency of nerve-injured paws to levels indistinguishable from control baseline pre-injury values
[6]; sham-operated, s.c.
  effect on thermal withdrawal latency in sham-operated mice: had no effects

## CC1CCN(CC[C@H]2CCCN2S(=O)(=O)c2cccc(O)c2)CC1 [SB-269970, (R)-3-(2-(2-(4-Methylpiperidin-1-yl)ethyl)pyrrolidine-1-sulfonyl)phenol]
[3]; antagonist i.p., AS-19 s.c., sciatic nerve-ligated rats
  effect on AS 19-induced anti-hyperalgesia/anti-allodynia: Blockade
h5-HT1F
  Ki: > 1000 nM
5-HT7 receptors [7]
  functionality at 5-HT7 receptor as described: inverse agonist
[1]; 10 mg/kg s.c., alone, 1 g filament
  effect on capsaicin-induced mechanical allodynia: did not modify paw withdrawal latencies
[1]; SB-269970 10 mg/kg + AS-19 5 mg/kg s.c.
  effect on the antiallodynic effect of AS-19 when co-administered: blocked the antiallodynic effect of the agonist
[5]; antagonist i.p., 5a-MSD s.c., infraorbital nerve-ligated rats
  effect on 5a-MSD-induced anti-hyperalgesia/anti-allodynia: Blockade
[5]; antagonist i.p., AS-19 s.c., infraorbital nerve-ligated rats
  effect on AS 19-induced anti-hyperalgesia/anti-allodynia: Blockade
[8]
  proallodynic effect (paw withdrawal latency): allodynia was evidenced

## COc1ccccc1N1CCN(CCN(C(=O)C2CCCCC2)c2ccccn2)CC1 [WAY-100635, N-(2-(4-(2-methoxyphenyl)-1-piperazinyl)ethyl)-N-(2-pyridinyl)cyclohexane carboxamide]
[1]; 0.1 and 0.3 mg/kg s.c., 1 g filament
  effect on capsaicin-induced mechanical allodynia: unaffected
[1]; 0.5 and 1 mg/kg s.c., 1 g filament
  effect on capsaicin-induced mechanical allodynia: significant increase in paw withdrawal latency
[1]; AS-19 at 5 and 10 mg/kg, WAY-100635 0.3 mg/kg or SB-258719 5 mg/kg s.c.
  effect on the antiallodynic effect of AS-19 when co-administered: unaffected
[1]; WAY-100635 0.3 mg/kg + F-13640 1 mg/kg s.c.
  effect on the antiallodynic effect of F-13640 when co-administered: blocked this antiallodynic effect
5-HT1A
  ID50 for block of 5-HT1A-mediated effects induced by 8-OH-DPAT: 0.01 mg/kg
